The experiment addresses T1, human GPR119 (hGPR119) (Homo sapiens, UniProt Q8TDV5).
T1 construct: expressed in transfected cells
T1 sequence (Q8TDV5 1-335): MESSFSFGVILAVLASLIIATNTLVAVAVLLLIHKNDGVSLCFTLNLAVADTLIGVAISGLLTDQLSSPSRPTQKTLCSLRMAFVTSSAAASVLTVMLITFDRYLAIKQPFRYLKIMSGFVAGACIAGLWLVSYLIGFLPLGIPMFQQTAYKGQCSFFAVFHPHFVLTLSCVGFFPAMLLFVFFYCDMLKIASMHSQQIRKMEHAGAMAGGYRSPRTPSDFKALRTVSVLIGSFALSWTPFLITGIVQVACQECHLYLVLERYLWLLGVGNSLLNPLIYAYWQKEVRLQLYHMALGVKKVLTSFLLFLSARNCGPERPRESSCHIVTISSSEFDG
In words: cAMP accumulation assay (cAMP Gs dynamic HTRF kit). It is filed as cell-based. The following applies: CHO-K1 cells stably expressing hGPR119, 4-parameter fit; for Emax: 1 h, % activity normalized to Max/Min controls; for EC50: cAMP accumulation. The method, then: CHO-K1 cells stably expressing human GPR119 (hGPR119) were prepared by transfection of a GPR119-carrying plasmid using Lipofectamine 2000 (following manufacturer instructions). A stable cell line was established using the limiting dilution method with geneticine selection. Assay-ready frozen (ARF) cells were prepared and used throughout the study.
The assay was performed in a 384-well plate format using the cAMP Gs dynamic assay kit from Cisbio. ARF cells expressing hGPR119 were thawed, washed and then resuspended in cAMP stimulation buffer at a cell density of 1.1×10^6 cells/mL. Cells were plated at a density of ˜10,000 cells/well (9 μL/well). Dose response curves for the tested compounds were prepared in a cAMP stimulation buffer, containing 0.1% Tween 80 at 4 fold the final concentration. The compounds were then transferred to the cell plates using BRAVO (3 μL/well) and the plates were incubated for 60 minutes at 37° C./5% CO2. Detection buffer (10 μL, prepared as described in the cAMP Gs dynamic kit) were added to each well, and the plates were incubated at ambient temperature for 1 hr.
RT-FRET was measured using a ClarioSTAR plate reader, calculating the ratio between emissions at 665 nm and 620 nm (HTRF ratio). The HTRF ratio for positive (Max) and negative (Min) controls were used to normalize HTRF data and generate values for % activity. EC50 and Max activity values were determined using a standard 4-parameter fit.
On the technique in general: cAMP levels reflect the balance of adenylyl cyclase and phosphodiesterase activity.

The structures appear in SMILES notation.

The Emax is the maximal effect, on the per cent scale that the assay sets. As a reminder, the EC50 is the concentration at which the effect is half-maximal. High values mean weaker potency, low ones greater potency. `COCc1cnc(N2CCC([C@H]3C[C@H]3CCOc3ccc(CC(=O)N4CC(CNC[C@H](O)[C@@H](O)[C@H](O)[C@H](O)CO)C4)c(F)c3)CC2)nc1` (mixture of isomers) [Example 97, 2-[2-fluoro-4-[2-[rac-(1S,2R)-2-[1-[5-(methoxymethyl)pyrimidin-2-yl]-4-piperidyl]cyclopropyl]ethoxy]phenyl]-1-[3-[[[(2S,3R,4R,5R)-2,3,4,5,6-pentahydroxyhexyl]amino]methyl]azetidin-1-yl]ethanone] returned an Emax of 100 to 130% and an EC50 of 0.1 to 1 µM.
In the same order, the values of `O=C(Cc1ccc(OCCCC2CCN(c3ncc(Cl)cn3)CC2)cc1F)NCCO[C@H]1O[C@H](CO)[C@@H](O)[C@H](O)[C@@H]1O` (racemic) [Example 16, 2-[4-[3-[1-(5-chloropyrimidin-2-yl)-4-piperidyl]propoxy]-2-fluoro-phenyl]-N-[2-[rac-(2S,3S,4S,5S,6R)-3,4,5-trihydroxy-6-(hydroxymethyl)tetrahydropyran-2-yl]oxyethyl]acetamide] are 100 to 130% and 0.1 to 1 µM.
In the same order, the values of `O=C(NCCO[C@H]1O[C@H](CO)[C@@H](O)[C@H](O)[C@@H]1O)C1CN(C(=O)Cc2ccc(OCCCC3CCN(c4ncc(Cl)cn4)CC3)cc2F)C1` (racemic) [Example 31, 1-[2-[4-[3-[1-(5-chloropyrimidin-2-yl)-4-piperidyl]propoxy]-2-fluoro-phenyl]acetyl]-N-[2-[rac-(2S,3S,4S,5S,6R)-3,4,5-trihydroxy-6-(hydroxymethyl)tetrahydropyran-2-yl]oxyethyl]azetidine-3-carboxamide] are 100 to 130% and 0.1 to 1 µM.
The molecule `COCc1cnc(N2CCC(CCCOc3ccc(CC(=O)N4CC(C(=O)NC[C@H](O)[C@@H](O)[C@H](O)[C@H](O)CO)C4)c(F)c3)CC2)nc1` (racemic) [Example 39, 1-[2-[2-fluoro-4-[3-[1-[5-(methoxymethyl)pyrimidin-2-yl]-4-piperidyl]propoxy]phenyl]acetyl]-N-[rac-(2S,3R,4R,5R)-2,3,4,5,6-pentahydroxyhexyl]azetidine-3-carboxamide] returned an Emax of 100 to 130% and a concentration for a half-maximal effect (EC50) of 0.1 to 1 µM.
In the same order, the values of `O=C(Cc1ccc(OCCCC2CCN(c3ncc(Cl)cn3)CC2)cc1F)N1CC(CN[C@@H]2C[C@H](O)[C@@H](O)[C@H]2O)C1` (racemic) [Example 49, 2-[4-[3-[1-(5-chloropyrimidin-2-yl)-4-piperidyl]propoxy]-2-fluoro-phenyl]-1-[3-[[[rac-(1R,2S,3R,4S)-2,3,4-trihydroxycyclopentyl]amino]methyl]azetidin-1-yl]ethanone] are ≥ 130% and 0.1 to 1 µM.
On the same counts, the results for `COc1cnc(N2CCC(CCCOc3ccc(CC(=O)N4CC(CNC[C@H](O)[C@@H](O)[C@H](O)[C@H](O)CO)C4)c(F)c3)CC2)nc1` (racemic) [Example 79, 2-[2-fluoro-4-[3-[1-(5-methoxypyrimidin-2-yl)-4-piperidyl]propoxy]phenyl]-1-[3-[[[rac-(2S,3R,4R,5R)-2,3,4,5,6-pentahydroxyhexyl]amino]methyl]azetidin-1-yl]ethanone] are 100 to 130% and 0.1 to 1 µM.
In the same order, the values of `CCOc1cnc(N2CCC(CCCOc3ccc(CC(=O)N4CC(CNC[C@H](O)[C@@H](O)[C@H](O)[C@H](O)CO)C4)c(F)c3)CC2)nc1` (racemic) [Example 80, 2-[4-[3-[1-(5-ethoxypyrimidin-2-yl)-4-piperidyl]propoxy]-2-fluoro-phenyl]-1-[3-[[[rac-(2S,3R,4R,5R)-2,3,4,5,6-pentahydroxyhexyl]amino]methyl]azetidin-1-yl]ethanone] are 100 to 130% and 0.1 to 1 µM.
For the molecule `COCc1cnc(N2CCC(CCCCOc3ccc(CC(=O)N4CC(CNC[C@H](O)[C@@H](O)[C@H](O)[C@H](O)CO)C4)c(F)c3)CC2)nc1` (racemic) [Example 84, 2-[2-fluoro-4-[4-[1-[5-(methoxymethyl)pyrimidin-2-yl]-4-piperidyl]butoxy]phenyl]-1-[3-[[[rac-(2S,3R,4R,5R)-2,3,4,5,6-pentahydroxyhexyl]amino]methyl]azetidin-1-yl]ethanone], the Emax was in the range of 100 to 130% and the EC50 was 0.1 to 1 µM.
On the same counts, the results for `COCc1cnc(N2CCC(CCCCOc3cc(F)c(CC(=O)N4CC(CNC[C@H](O)[C@@H](O)[C@H](O)[C@H](O)CO)C4)c(F)c3)CC2)nc1` (racemic) [Example 85, 2-[2,6-difluoro-4-[4-[1-[5-(methoxymethyl)pyrimidin-2-yl]-4-piperidyl]butoxy]phenyl]-1-[3-[[[rac-(2S,3R,4R,5R)-2,3,4,5,6-pentahydroxyhexyl]amino]methyl]azetidin-1-yl]ethanone] are 100 to 130% and 0.1 to 1 µM.
On the same counts, the results for `O=C(OCCC1CCN(c2ncc(Cl)cn2)CC1)c1ccc(CC(=O)N2CC(CNC[C@H](O)[C@@H](O)[C@H](O)[C@H](O)CO)C2)c(F)c1` (racemic) [Example 91, 2-[1-(5-chloropyrimidin-2-yl)-4-piperidyl]ethyl 3-fluoro-4-[2-oxo-2-[3-[[[rac-(2S,3R,4R,5R)-2,3,4,5,6-pentahydroxyhexyl]amino]methyl]azetidin-1-yl]ethyl]benzoate] are 100 to 130% and 1 to 10 µM.
In the same order, the values of `O=C(Cc1ccc(CC(=O)N2CC(CNC[C@H](O)[C@@H](O)[C@H](O)[C@H](O)CO)C2)c(F)c1)OCCC1CCN(c2ncc(Cl)cn2)CC1` (racemic) [Example 92, 2-[1-(5-chloropyrimidin-2-yl)-4-piperidyl]ethyl 2-[3-fluoro-4-[2-oxo-2-[3-[[[rac-(2S,3R,4R,5R)-2,3,4,5,6-pentahydroxyhexyl]amino]methyl]azetidin-1-yl]ethyl]phenyl]acetate] are 100 to 130% and 0.1 to 1 µM.
`O=C(OC[C@@H]1C[C@@H]1C1CCN(c2ncc(Cl)cn2)CC1)c1ccc(CC(=O)N2CC(CNC[C@H](O)[C@@H](O)[C@H](O)[C@H](O)CO)C2)c(F)c1` (racemic) [Example 95, (1R,2R)-2-[1-(5-chloropyrimidin-2-yl)-4-piperidyl]cyclopropyl]methyl 3-fluoro-4-[2-oxo-2-[3-[[[rac-(2S,3R,4R,5R)-2,3,4,5,6-pentahydroxyhexyl]amino]methyl]azetidin-1-yl]ethyl]benzoate] displayed a maximal response (Emax) of 100 to 130% and a half-maximal effective concentration (EC50) of 0.1 to 1 µM.
On the same counts, the results for `CC1(OC(=O)N2CCC(CCCOc3ccc(CC(=O)N4CC(CNC[C@H](O)[C@@H](O)[C@H](O)[C@H](O)CO)C4)c(F)c3)CC2)CC1` (racemic) [Example 119, (1-methylcyclopropyl) 4-[3-[3-fluoro-4-[2-oxo-2-[3-[[[rac-(2S,3R,4R,5R)-2,3,4,5,6-pentahydroxyhexyl]amino]methyl]azetidin-1-yl]ethyl]phenoxy]propyl]piperidine-1-carboxylate] are 100 to 130% and 0.1 to 1 µM.
In the case of `O=C(Cc1ccc(OCCCC2CCN(c3ncc(Cl)cn3)CC2)cc1F)N1CC(CN2C[C@H](O)[C@@H](O)C2)C1` (stereo in doubt) [Example 46, 2-[4-[3-[1-(5-chloropyrimidin-2-yl)-4-piperidyl]propoxy]-2-fluoro-phenyl]-1-[3-[[rac-(3S,4S)-3,4-dihydroxypyrrolidin-1-yl]methyl]azetidin-1-yl]ethanone], the Emax fell in the range of 100 to 130% and the half-maximal effective concentration (EC50) was ≤ 0.1 µM.
For the molecule `O=C(Cc1ccc(OCCCC2CCN(c3ncc(Cl)cn3)CC2)cc1F)N1CC(CN2C[C@@H](O)[C@H](O)C2)C1` (stereo in doubt) [Example 47, 2-[4-[3-[1-(5-chloropyrimidin-2-yl)-4-piperidyl]propoxy]-2-fluoro-phenyl]-1-[3-[[rac-(3R,4R)-3,4-dihydroxypyrrolidin-1-yl]methyl]azetidin-1-yl]ethanone], the maximal effect (Emax) was in the range of 100 to 130% and the 50% effective concentration (EC50) was ≤ 0.1 µM.
`O=C(Cc1ccc(OCCCC2CCN(c3ncc(Cl)cn3)CC2)cc1F)NCCCCCNC(CO)CO` [Example 1, 2-[4-[3-[1-(5-chloropyrimidin-2-yl)-4-piperidyl]propoxy]-2-fluoro-phenyl]-N-[5-[[2-hydroxy-1-(hydroxymethyl)ethyl]amino]pentyl]acetamide]: the maximum response (Emax) was ≥ 130% and the concentration for a half-maximal effect (EC50) was in the range of 0.1 to 1 µM.
On the same counts, the results for `CC[N+](CC)(CC)CCCCCNC(=O)Cc1ccc(OCCCC2CCN(c3ncc(Cl)cn3)CC2)cc1F` [Example 2, 5-[[2-[4-[3-[1-(5-chloropyrimidin-2-yl)-4-piperidyl]propoxy]-2-fluoro-phenyl]acetyl]amino]pentyl-triethyl-ammonium] are ≥ 130% and 0.1 to 1 µM.
On the same counts, the results for `O=C(Cc1ccc(OCCCC2CCN(c3ncc(Cl)cn3)CC2)cc1F)NCCCCCNC[C@H](O)[C@@H](O)[C@H](O)[C@H](O)CO` [Example 3] are ≥ 130% and 0.1 to 1 µM.

Values taken from patent US20230061736A1, “GPR119 AGONISTS” (Kallyope, Inc., priority 2019, published 2023).
